Values of other authors, collected in patent US20010014694A1, “Substituted phenyl compounds and derivatives thereof that modulate the activity of endothelin” (priority 1996, published 2001).
Like-named read-outs stand apart in the source and are kept apart here.

Columns and labels:
ETA receptor = conditions: read-out: IC50, inhibition of 125I-labelled endothelin-1 binding, cited from earlier work
ETB receptors = conditions: tissues in which ETB receptors predominate; read-out: fails to inhibit binding to receptors at concentrations up to; cited from earlier work
[1] = test system: non-cardiovascular tissues, such as kidney, adrenal gland, and cerebellum (ETB receptors predominate); conditions: cited from earlier work
[2] = test system: cardiovascular tissues (ETA receptors predominate); conditions: cited from earlier work
isolated vascular strips = conditions: read-out: EC50, contractile agent; cited from earlier work

Row | Substance | IC50 (ETA receptor; aortic smooth muscle) [nM] | IC50 (ETA receptor; cultured aortic smooth muscle cells) [nM] | IC50 (ETA receptor; ventricle membranes) [nM] | IC50 (ETB receptors) [nM] | extent of inhibition of 125I-labelled endothelin-1 binding [1] | potency of inhibition of 125I-labelled endothelin-1 binding relative to endothelin-3 [2] | EC50 (isolated vascular strips) [nM]
1 | cyclo(D-Glu-L-Ala-allo-D-Ile-L-Leu-D-Trp) [BE-18257B] | 1400 | 500 | 800 | > 100000 |  |  | 
2 | endothelin-1: endothelium-derived potent twenty-one amino acid peptide vasoconstrictor, one of three endothelin isopeptides |  |  |  |  | to the same extent | forty to seven hundred times more potently | 0.4
